This is an account of results in patent publication US20080004561A1, “Method for Treating Oncological, Virulent and Somatic Diseases, Method for Controlling Treatment Efficiency, Pharmaceutical Agents and Composition for Carrying Out Said Treatment” (priority 2005, published 2008).

The subject of assay [1] is blood plasma DNA. Kind of assay: Blood plasma DNA concentration after end of DNase treatment course (Example 2). The assay is classed as in vivo. Particulars: Erlich carcinoma mice. The procedure: Fresh blood plasma (not more than 3-4 hours after isolation) with anticoagulant (sodium citrate) addition was centrifuged on Ficoll-PlaquePlus (Amersham-Pharmacia) step at 1500 g for 20 minutes at room temperature. Plasma (½ of all amount) was neatly isolated avoiding touching cells sediment on ficoll step and was centrifuged at 10 000 g for 30 minutes to eliminate cells and debris. Supernatant was taken away not touching sediment and up to 1% of sarcosile, up to 50 mM of tris HCl pH 7,6, up to 20 mM EDTA, up to 400 mM NaCl and equal volume of phenol—chloroform mixture 1:1 were added. Received emulsion was incubated at 65° C. for 2 hours than phenol-chloroform was separated by centrifuging at 5000 g during 20 minutes at room temperature. Deproteinization by phenol-chloroform method was identically repeated for three times after what water phase was processed by chloroform and after it by diethyl ether.
Organic solvents' separation was done by centrifuging at 5000 g during 15 minutes. Equal part of isopropanol was added to water phase and incubated during night at 0° C.
After sedimentation nucleic acids were separated by centrifuging at 10 000 g during 30 minutes. […]
DNA was isolated by method that is mentioned above. DNA amount was spectrophotometrically measured. […]

In assay [2] the test system is Staphylococcus aureus VT-2003R. Kind of assay: DNase use for treatment of the experimental sepsis (Example 5). Particulars: mice, DNase 500 mkg/kg intraperitoneally four times a day, 1-3 days after infection. The assay is classed as in vivo. The source says: White not thoroughbred mice were used for experiment. Animals' weight was 24-26 grams. Pathogenic strain of Staphylococcus aureus VT-2003R at 1×10^10 bacteria/animal dose was inoculated to retroorbital sinus of animals. DNase was intraperitoneally administered. Isotonic solution of sodium chloride or Penicillin was administrated to control groups. Each experimental group contained 10 mice. Intraperitoneal administration of compound (DNAase) four times a day at 500 mkg/kg dose continued for 1-3 days after infection. Penicillin was intramusculary administrated. Efficiency of action was estimated by number of animals that stayed alive after the death of the last one in control group. All animals have died to the third day of the experiment in control group. Six animals stayed alive to the third day of the experiment in the group that administrated DNase. Protection was […]. Received data specify an opportunity and efficiency of DNase use for infections' treatment.

Assay [3] deals with DNA from biofilm matrix of Escherichia coli. Kind of assay: DNAase I processing of DNA from biofilm matrix, electrophoresis (Example 12). In kind it is biochemical. Particulars: DNA processed for 3 hours by DNAase I at 37° C. The source says: (§1) Biofilms of Escherichia coli and Staphylococcus aureus were used in experiments. Biofilms were washed off by phosphate buffer from agar. Cells and matrix were separated by centrifuging. Standard phenol-chloroform method was used for DNA extraction from matrix. DNA amount was estimated by spectrophotometric analysis with wave's length 260 nm (SF-46). Received DNA was researched by electrophoresis in 0.8% […] gel with ethidium bromide staining.
(§2) One part of received DNA was processed for 3 hours by DNAase I at 37° C. After electrophoretic separation of processed and not processed DNA it was found out that: […]

In assay [4] the test system is DNA from biofilm matrix of Staphylococcus aureus. The description is as above. The assay is classed as biochemical. Particulars: DNA processed for 3 hours by DNAase I at 37° C.
Excerpt: as §1, §2

Assay [5] deals with Erlich carcinoma. Kind of assay: Combined use of DNase and Doxorubicin, Erlich tumor growth (Example 3). The assay is classed as in vivo, mice. Particulars: Doxorubicin 2 mg/kg intravenously once a day and/or DNase 0.5 mg/kg intraperitoneally four times a day, day 3 to 7; 7th day after transplantation. How it is done: Bovine pancreatic DNase I (Fermentas) and human recombinant DNase […]) were used. DNase I solution for injections were prepared by dissolving of DNase matrix solution in sterile phosphate buffer directly before administration. […] Blood plasma DNA of tumor-bearing mice was received according to technique described above. Highly metastatic and low metastatic stains of mice' Luice lung carcinoma and Erlich carcinoma were used. […] For tumor induction in mice, cells were cultivated until the monolayer, than were detached with trypsin-EDTA solution. Cells were washed trice by centrifuging in phosphate buffer and were resuspensed until their concentration have become 0.5×10^7/ml. Viability was defined by inclusion of methylene blue in hemocytometer. […] Mice of C57B1 line and white not thoroughbred mice from “Rappolovo” animal house were used. Weight of animals was 24-26 grams. Animals were contained in cages, for 6-7 mice per one cage on a standard diet without water restriction. LLC cells in dose of 5×10^5 in 100 mkl of phosphate buffer were injected in soft tissues of thigh. […] Group 1-10 mice transplanted with Erlich carcinoma (control). Group 2-10 mice replanted with Erlich carcinoma. […] Group 3-10 mice replanted with Erlich carcinoma. […] Group 4-10 mice replanted with Erlich carcinoma. […] Results of experiments were estimated according to tumor's growth inhibition (TGI) that were expressed in percents to control data received at last day of DNase injection with standard formula using.

The test system of assay [6] is metastases development. Particulars: systemic introduction; Sugihara S. et al. (1990, 1993); cited from earlier work.

As for DNase, the “Blood plasma DNA concentration” value in assay [1] (DNase 0.5 mg/kg four times a day) was found to be 38.5 ng/mL; in assay [1] (DNase 1 mg/kg twice a day), 55.1 ng/mL. Further, the “Number of animals that stayed alive to the third day” value in assay [2] (10 per group) is recorded as “Six”. For the same substance, the Protection in assay [2] is given as 67%. For the same substance, the “DNA band after electrophoresis” value in assay [3] and in assay [4] was “disappeared completely” in each case. The “T% (tumor's growth inhibition)” value in assay [5] is on record as 78%. The “Tumor's volume” value in assay [5] is 20 +/− 6. Moreover, the Metastases development result in assay [6] is on record as “could slow metastases development”.
